We go through 17 molecules from article PMC5991783, “Discovery and Optimization of Indolyl-Containing 4-Hydroxy-2-Pyridone Type II DNA Topoisomerase Inhibitors Active against Multidrug Resistant Gram-negative Bacteria” (Journal of Medicinal Chemistry, 2018).

The target in one data set is E. coli DNA gyrase (Escherichia coli, UniProt P0AES4+P0AES6). Nature of the data set: biochemical.
The target of a further data set is human topoisomerase II (Homo sapiens, UniProt P11388). Nature of the data set: Human topoisomerase II decatenation assay. It is filed as biochemical. The note with it: Supplemental Table 1; read-out: Human Topo II IC50.
Chain of human topoisomerase II (P11388 whole entry): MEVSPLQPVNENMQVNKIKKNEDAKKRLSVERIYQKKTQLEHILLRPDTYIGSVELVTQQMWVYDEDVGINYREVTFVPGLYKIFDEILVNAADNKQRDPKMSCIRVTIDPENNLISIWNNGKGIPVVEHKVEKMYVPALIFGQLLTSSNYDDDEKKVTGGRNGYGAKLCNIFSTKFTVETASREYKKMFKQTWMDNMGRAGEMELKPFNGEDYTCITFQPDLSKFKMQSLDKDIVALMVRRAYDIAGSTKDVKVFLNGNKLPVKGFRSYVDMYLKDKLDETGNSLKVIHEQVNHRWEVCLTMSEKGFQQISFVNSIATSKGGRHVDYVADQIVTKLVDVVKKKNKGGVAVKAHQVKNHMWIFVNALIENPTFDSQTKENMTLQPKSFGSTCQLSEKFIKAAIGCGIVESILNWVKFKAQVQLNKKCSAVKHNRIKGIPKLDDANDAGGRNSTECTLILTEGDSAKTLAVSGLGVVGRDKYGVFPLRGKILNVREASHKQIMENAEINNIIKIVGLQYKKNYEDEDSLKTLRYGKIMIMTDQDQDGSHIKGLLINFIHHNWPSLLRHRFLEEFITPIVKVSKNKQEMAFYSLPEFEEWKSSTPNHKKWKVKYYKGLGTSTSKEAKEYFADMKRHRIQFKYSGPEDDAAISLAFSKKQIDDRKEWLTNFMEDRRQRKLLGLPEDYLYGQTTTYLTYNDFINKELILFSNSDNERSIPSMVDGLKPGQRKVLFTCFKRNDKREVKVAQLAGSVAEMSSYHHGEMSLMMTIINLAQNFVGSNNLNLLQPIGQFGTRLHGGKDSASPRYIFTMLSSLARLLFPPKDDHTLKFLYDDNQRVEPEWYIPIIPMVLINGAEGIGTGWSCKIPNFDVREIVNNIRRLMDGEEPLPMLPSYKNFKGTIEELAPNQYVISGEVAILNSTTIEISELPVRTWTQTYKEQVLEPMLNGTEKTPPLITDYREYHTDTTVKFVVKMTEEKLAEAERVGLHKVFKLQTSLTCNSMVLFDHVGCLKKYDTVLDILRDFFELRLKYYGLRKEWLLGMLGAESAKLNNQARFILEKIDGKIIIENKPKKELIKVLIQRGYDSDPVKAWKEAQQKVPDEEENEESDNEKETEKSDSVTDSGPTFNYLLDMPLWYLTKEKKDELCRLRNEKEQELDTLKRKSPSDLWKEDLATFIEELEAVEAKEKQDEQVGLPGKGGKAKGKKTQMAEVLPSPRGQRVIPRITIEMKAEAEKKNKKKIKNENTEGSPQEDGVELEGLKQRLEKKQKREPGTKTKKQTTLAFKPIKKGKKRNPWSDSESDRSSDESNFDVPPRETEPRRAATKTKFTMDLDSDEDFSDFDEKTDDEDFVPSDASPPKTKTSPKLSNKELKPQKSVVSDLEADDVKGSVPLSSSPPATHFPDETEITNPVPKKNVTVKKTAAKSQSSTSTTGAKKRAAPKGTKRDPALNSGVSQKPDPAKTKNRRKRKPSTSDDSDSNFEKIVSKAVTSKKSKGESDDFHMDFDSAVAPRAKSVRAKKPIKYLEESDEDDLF
Data set [1] has as its system panel of 12 A. baumannii isolates. Put plainly: Susceptibility testing, 12 A. baumannii isolates. It is filed as cell-based, Acinetobacter baumannii.
A short description of data set [2]: Pharmacokinetics in CD-1 mice. As to conditions: CD-1, mouse, plasma, iv, 10 mg/kg.
For a further data set, the system named is E. coli ATCC 25922. Put plainly: MIC, wild-type E. coli ATCC 25922. The note with it: for increase in MIC values against the wild-type E. coli strain compared to the permeable strain: E. coli^WT vs E. coli^P; for MIC E. coli^WT: E. coli ATCC 25922; for MIC: Escherichia coli, ATCC25922, read-out: MIC E. coli^WT, E. coli ATCC 25922. It is filed as cell-based, Escherichia coli.

The subject of another data set is E. coli^WT (ATCC 25922). Nature of the data set: Mouse septicemia model. In kind it is in vivo, CD-1 mice. The note with it: Mus musculus, iv, 96 h, read-out: survival.
The subject of another data set is E. coli SKM18. Nature of the data set: microbe, parasite or virus in culture. It is filed as cell-based, Escherichia coli. As to conditions: for MIC E. coli^R1: E. coli SKM18.
The subject of data set [3] is Acinetobacter baumannii ATCC BAA-747. Nature of the data set: MIC, wild-type A. baumannii. In kind it is cell-based. The note with it: A. baumannii ATCC BAA-747.
A further data set has as its system A. baumannii MMX2240. Put plainly: MIC, fluoroquinolone resistant A. baumannii. It is filed as cell-based, Acinetobacter baumannii.
The test system of data set [4] is Klebsiella pneumoniae ATCC 35657. Put plainly: MIC, wild-type K. pneumoniae. In kind it is cell-based. As to conditions: K. pneumoniae ATCC 35657.
Data set [5] relates to panel of 12 E. coli isolates. Put plainly: Susceptibility testing, 12 E. coli isolates. In kind it is cell-based, Escherichia coli.
The mark [6] stands for this setting: E. coli enzymatic activity, DNA gyrase IC50.

In brackets after ≈: the same amount, converted by molar mass. Structures can show the parent of a compound that is named as a salt. A value given as a limit tells only on which side of the number the result lay.

Chain of E. coli DNA gyrase (P0AES4 whole entry, one chain of several): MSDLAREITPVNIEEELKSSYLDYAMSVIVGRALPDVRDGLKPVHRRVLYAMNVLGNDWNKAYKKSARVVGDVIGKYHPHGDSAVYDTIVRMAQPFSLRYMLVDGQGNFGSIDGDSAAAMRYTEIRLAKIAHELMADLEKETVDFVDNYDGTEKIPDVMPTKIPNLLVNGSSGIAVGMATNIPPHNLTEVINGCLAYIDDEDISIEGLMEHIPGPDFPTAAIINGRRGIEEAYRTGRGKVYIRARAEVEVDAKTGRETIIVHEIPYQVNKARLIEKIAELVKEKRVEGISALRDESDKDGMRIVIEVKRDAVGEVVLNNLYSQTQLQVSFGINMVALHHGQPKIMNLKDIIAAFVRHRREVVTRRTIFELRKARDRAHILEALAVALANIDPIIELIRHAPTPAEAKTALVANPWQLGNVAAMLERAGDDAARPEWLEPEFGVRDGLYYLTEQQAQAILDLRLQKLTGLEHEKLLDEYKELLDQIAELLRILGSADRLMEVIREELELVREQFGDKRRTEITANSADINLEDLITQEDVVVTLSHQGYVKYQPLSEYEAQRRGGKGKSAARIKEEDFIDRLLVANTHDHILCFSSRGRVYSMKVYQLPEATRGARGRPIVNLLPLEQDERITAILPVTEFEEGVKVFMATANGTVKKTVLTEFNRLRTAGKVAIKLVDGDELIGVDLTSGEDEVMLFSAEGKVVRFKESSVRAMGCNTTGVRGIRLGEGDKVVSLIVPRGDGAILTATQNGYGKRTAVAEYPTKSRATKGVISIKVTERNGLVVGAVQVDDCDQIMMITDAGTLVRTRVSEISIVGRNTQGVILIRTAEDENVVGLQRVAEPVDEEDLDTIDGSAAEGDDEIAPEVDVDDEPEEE

With `Cn1c(CNC2(C)CCC2)cc2cc3c(cc21)OCCc1c-3[nH]c(=O)c(C(=O)O)c1O` [Compound 6q, 4-Hydroxy-9-methyl-10-(((1-methylcyclobutyl)amino)methyl)-2-oxo-2,5,6,9-tetrahydro-1H-pyrido[2′,3′:4,5]oxepino[3,2-f]indole-3-carboxylic Acid Hydrochloride], the IC50 against E. coli DNA gyrase (E. coli DNA gyrase IC50) is 730 nM; at human topoisomerase II it was > 100 µM. Besides, in data set [1] (Acinetobacter baumannii, read-out: A. baumannii MIC range), the MIC lay within 0.06 to 16 µg/mL. This molecule also registered an area under the curve AUC(0-t) at 24 h in data set [2] (pH 8) of 4420 ng·h/mL. The same molecule showed a clearance in data set [2] (pH 8) of 37 mL/min/kg.

Regarding `CCc1c(-c2ccc3c(ccn3C)c2)[nH]c(=O)c(C(=O)O)c1O` [Compound 2a, 5-Ethyl-4-hydroxy-6-(1-methyl-1H-indol-5-yl)-2-oxo-1,2-dihydropyridine-3-carboxylic Acid], in the data set on E. coli ATCC 25922, the “increase in MIC values against the wild-type E. coli strain compared to the permeable strain” value is listed as “greater than 25 fold”.

Consider `CCc1c(-c2ccc3c(c2)cc(C)n3C)[nH]c(=O)c(C(=O)O)c1O` [Compound 2b, 6-(1,2-Dimethyl-1H-indol-5-yl)-5-ethyl-4-hydroxy-2-oxo-1,2-dihydropyridine-3-carboxylic Acid], for which the “increase in MIC values against the wild-type E. coli strain compared to the permeable strain” value in the data set with E. coli ATCC 25922 is “greater than 25 fold”.

In turn, `CN(C)Cc1cc2cc3c(cc2n1C)OCCc1c-3[nH]c(=O)c(C(=O)O)c1O` [Compound 6s, 10-((Dimethylamino)methyl)-4-hydroxy-9-methyl-2-oxo-2,5,6,9-tetrahydro-1H-pyrido[2′,3′:4,5]oxepino[3,2-f]indole-3-carboxylic Acid Hydrochloride] showed an IC50 at E. coli DNA gyrase (E. coli DNA gyrase IC50) of 490 nM. In addition, the IC50 on human topoisomerase II was > 100 µM. In addition, the responders at 20 mg/kg with E. coli^WT (ATCC 25922) turned out to be 100%. Moreover, in data set [2] (pH 4), the AUC(0-t) at 24 h is 2930 ng·h/mL and the clearance turned out to be 53 mL/min/kg.

For the molecule `CO/N=C(\C(=O)N[C@@H]1C(=O)N2C(C(=O)[O-])=C(C[N+]3(C)CCCC3)CS[C@H]12)c1csc(N)n1` [cefepime, reference compound], the “MIC E. coli^WT” value against E. coli ATCC 25922 came out at 0.05 µg/mL (≈ 0.104 µM). Further, the “MIC E. coli^R1” value against E. coli SKM18 amounted to 0.05 µg/mL (≈ 0.104 µM). Further, the “MIC A. bau^WT” value in data set [3] was 0.78 µg/mL (≈ 1.62 µM). Further, the “MIC A. bau^R” value in the data set on A. baumannii MMX2240 came to 0.78 µg/mL (≈ 1.62 µM). Besides, in data set [4], the “MIC K. pneu^WT” value came out at 0.02 µg/mL (≈ 0.0416 µM).

Turning to “10-((sec-Butylamino)methyl)-4-hydroxy-9-methyl-2-oxo-1,2,5,6,7,9-hexahydropyrido[3′,2′:6,7]cyclohepta[1,2-f]indole-3-carboxylic Acid Hydrochloride [Compound 6n]”, the “MIC E. coli^WT” value against E. coli ATCC 25922 is 0.78 µg/mL. The “MIC E. coli^R1” value in the data set with E. coli SKM18 stood at 0.78 µg/mL. In addition, the “MIC A. bau^WT” value in [3] was 0.78 µg/mL. The “MIC A. bau^R” value against A. baumannii MMX2240 worked out at 0.50 µg/mL. In addition, the “MIC K. pneu^WT” value in [4] was determined as 0.50 µg/mL.

Take `Cn1c(CN2CCCC2)cc2cc3c(cc21)CCCc1c-3[nH]c(=O)c(C(=O)O)c1O` [Compound 6v, 4-Hydroxy-9-methyl-2-oxo-10-(pyrrolidin-1-ylmethyl)-1,2,5,6,7,9-hexahydropyrido[3′,2′:6,7]cyclohepta[1,2-f]indole-3-carboxylic Acid Hydrochloride]: the IC50 at E. coli DNA gyrase (E. coli DNA gyrase IC50) was 210 nM; on human topoisomerase II it was > 100 µM. In addition, the “E. coli MIC90” value in [5] (12 strains, Mueller Hinton II broth) turned out to be 1 µg/mL. Also, the MIC90 lay in the range of 0.5 to 1 µg/mL in data set [5] (Escherichia coli, read-out: E. coli MIC90, 12 strains, Mueller Hinton II broth) and 8 to 16 µg/mL in [1] (Acinetobacter baumannii, read-out: A. baumannii MIC90, 12 strains, Mueller Hinton II broth). For the same molecule, the responders at 20 mg/kg in the data set with E. coli^WT (ATCC 25922) is 100%. This molecule registered an AUC(0-t) at 24 h in data set [2] (pH 8) of 4050 ng·h/mL. The clearance in [2] (pH 8) turned out to be 41 mL/min/kg.

For the molecule `Cn1c(CNC2(C)CCC2)cc2cc3c(cc21)CCCc1c-3[nH]c(=O)c(C(=O)O)c1O` [Compound 6p, 4-Hydroxy-9-methyl-10-(((1-methylcyclobutyl)amino)methyl)-2-oxo-1,2,5,6,7,9-hexahydropyrido[3′,2′:6,7]cyclohepta[1,2-f]indole-3-carboxylic Acid Hydrochloride], the responders at 20 mg/kg with E. coli^WT (ATCC 25922) was 0%. For the same molecule, in data set [2] (pH 4), the AUC(0-t) at 24 h is 4580 ng·h/mL and the clearance came to 35 mL/min/kg.

As for `CNCc1cc2cc3c(cc2n1C)CCc1c-3[nH]c(=O)c(C(=O)O)c1O.Cl` [Compound 5a], the MIC in the data set on E. coli ATCC 25922 worked out at 7.8 µg/mL; in the data set with E. coli SKM18 (Escherichia coli, SKM18, read-out: MIC E. coli^R1, E. coli SKM18), 7.8 µg/mL. This molecule also had an IC50 at E. coli DNA gyrase (setting [6]) of 900 nM.

As for `CCNCc1cc2cc3c(cc2n1C)NCCc1c-3[nH]c(=O)c(C(=O)O)c1O` [Compound 6g], in the data set on E. coli ATCC 25922, the MIC fell in the range of 7.8 to 31.3 µg/mL (≈ 20.4 to 81.8 µM).

`Cn1c(CN2CCCC2)cc2cc3c(cc21)OCCc1c-3[nH]c(=O)c(C(=O)O)c1O` [Compound 6w, 4-Hydroxy-9-methyl-2-oxo-10-(pyrrolidin-1-ylmethyl)-2,5,6,9-tetrahydro-1H-pyrido[2′,3′:4,5]oxepino[3,2-f]indole-3-carboxylic Acid Hydrochloride]: the figures for the 50% inhibitory concentration (IC50) against E. coli DNA gyrase (E. coli DNA gyrase IC50) and on human topoisomerase II were 280 nM and > 100 µM, respectively.

Regarding `CN(C)c1cc(NC(=O)CNC(C)(C)C)c(O)c2c1C[C@H]1C[C@H]3[C@H](N(C)C)C(O)=C(C(N)=O)C(=O)[C@@]3(O)C(O)=C1C2=O` [tigecycline, reference compound], the “MIC E. coli^WT” value in the data set with E. coli ATCC 25922 stood at 0.13 µg/mL (≈ 0.222 µM). Besides, the “MIC E. coli^R1” value in the data set with E. coli SKM18 came out at 0.25 µg/mL (≈ 0.427 µM). In addition, in data set [3], the “MIC A. bau^WT” value is 0.78 µg/mL (≈ 1.33 µM). Besides, the “MIC A. bau^R” value in the data set with A. baumannii MMX2240 was determined as 0.78 µg/mL (≈ 1.33 µM). In addition, the “MIC K. pneu^WT” value in [4] came to 0.13 µg/mL (≈ 0.222 µM).

In the case of `CN(C)Cc1cc2cc3c(cc2n1C)CCCc1c-3[nH]c(=O)c(C(=O)O)c1O` [Compound 6r, 10-((Dimethylamino)methyl)-4-hydroxy-9-methyl-2-oxo-1,2,5,6,7,9-hexahydropyrido[3′,2′:6,7]cyclohepta[1,2-f]indole-3-carboxylic Acid Hydrochloride], the IC50 on E. coli DNA gyrase (E. coli DNA gyrase IC50) was 410 nM; on human topoisomerase II it was > 100 µM. Moreover, the responders at 20 mg/kg in the data set with E. coli^WT (ATCC 25922) amounted to 100%. Further, the AUC(0-t) at 24 h in [2] (pH 8) was found to be 3520 ng·h/mL. Moreover, the clearance in data set [2] (pH 8) was determined as 47 mL/min/kg.

`CC(C)NCc1cc2cc3c(cc2n1C)CCCc1c-3[nH]c(=O)c(C(=O)O)c1O` [Compound 6i, 4-Hydroxy-10-((isopropylamino)methyl)-9-methyl-2-oxo-1,2,5,6,7,9-hexahydropyrido[3′,2′:6,7]cyclohepta[1,2-f]indole-3-carboxylic Acid Hydrochloride] came in with an IC50 against E. coli DNA gyrase (E. coli DNA gyrase IC50) of 2700 nM. On human topoisomerase II, the IC50 was > 100 µM. In data set [2] (pH 8), this molecule yielded an AUC(0-t) at 24 h of 1810 ng·h/mL and a clearance of 64 mL/min/kg.

As to `CC(C)NCc1cc2cc3c(cc2n1C)NCCc1c-3[nH]c(=O)c(C(=O)O)c1O` [Compound 6l], in the data set on E. coli ATCC 25922, the MIC was 7.8 to 31.3 µg/mL (≈ 19.7 to 79 µM).

On to `C[C@H]1COc2c(N3CCN(C)CC3)c(F)cc3c(=O)c(C(=O)O)cn1c23.C[C@H]1COc2c(N3CCN(C)CC3)c(F)cc3c(=O)c(C(=O)O)cn1c23.O` [levofloxacin, reference compound], for which, in [5] (12 strains), the “E. coli MIC range” value is 0.015 to 32 µg/mL. Besides, in data set [1] (12 strains), the “A. baumannii MIC range” value fell in the range of 0.06 to 64 µg/mL.

As for `CCNCc1cc2cc3c(cc2n1C)CCCc1c-3[nH]c(=O)c(C(=O)O)c1O` [Compound 6a, 10-((Ethylamino)methyl)-4-hydroxy-9-methyl-2-oxo-1,2,5,6,7,9-hexahydropyrido[3′,2′:6,7]cyclohepta[1,2-f]indole-3-carboxylic Acid Hydrochloride], the IC50 on E. coli DNA gyrase (E. coli DNA gyrase IC50, gyrase^WT) was 560 nM; at E. coli DNA gyrase (setting [6]) it was 100 nM; at human topoisomerase II it was > 100 µM.
